Reference: US20260199350A1, “FLAVONES, QUINOLINONES, QUINAZOLINONES, AND AURONES, AND USES IN CK2-MEDIATED DISEASES” (Salk Institute for Biological Studies, priority 2022, published 2026)
Entries after “also recorded” stand apart in the source; their conditions may differ.

How the values were obtained:
[1] = test system: IL-6 secretion; experiment: IL-6 secretion assay in astrocytes (Promega Lumit IL-6 kit); format: cell-based, human; settings: astrocytes and microglia; FIG. 2D, FIG. 1C
In short: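 Human astrocytes (HCAs), 20,000 per well, cultured 2-3 days, then stimulated with 10 ng/mL IL1B alongside compound dilution series. IL-6 secreted over 5 h quantified by Lumit IL-6 luminescent immunoassay.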

[2] = test system: IL-6, IL-8, TNF-α, and MCP-1; experiment: Flow cytometry assay of cytokine production in HCA; format: cell-based, human; settings: 20 μM compound, 10 ng/mL IL1-β
Experimental: Flow cytometry. For each well of HCA in a 6-well plate, 2 mL of fresh media with GolgiPLUG (BD #555029, 1:1000) and GolgiSTOP (BD #554724, 1:1000) with 20 μM compound or vehicle (DMSO) and IL1b 10 ng/mL or DPBS was added. The cells were incubated for 5 h at 37° C. Cells were collected with TrypLE and plated into a 96-well V-bottom plate for staining. The plate was centrifuged for 5 min, 1300 rpm, 4° C. to pellet cells, which were subsequently resuspended in 100 μL DPBS with 1 μL Zombie Violet (Biolegend #4231 13) and 5 μL Human Trustain FC block (Biolegend #422302) per well for 15 min at room temperature in the dark. The plate was centrifuged, supernatant was aspirated, and the cells were washed with 100 μL/well DPBS. Cells were fixed with 100 μL/well of Cytofix/Cytoperm (BD) for 20 min at 4° C. The plate was centrifuged, supernatant was aspirated, and cells were resuspended in 100 μL Permwash (BD) and incubated for 15 min at 4° C. The plate was centrifuged, supernatant was aspirated, and cells were incubated with 100 μL/well of Ab mix or isotype mix in Permwash (see below) for 20 min at 4° C., followed by centrifugation and 2× PermWash washes. The cells were resuspended in 100 μL DPBS and transferred to FACS tubes containing 200 ul of PBS (total volume per tube 300 μL) for analysis on FACS Analyzers (LSRII or Fortessa).
A flow cytometry-based assay was used to assess the anti-inflammatory activity of several natural flavonoid compounds (FIG. 1A) and build corresponding structure-activity relationships. Primary human cerebellar astrocytes (HCA) were co-treated with 20 μM of each compound or vehicle (DMSO), 10 ng/mL IL1-β, and a protein transport inhibitor for 6 hours, and then processed for intracellular staining of pro-inflammatory cytokines IL-6, IL-8, TNF-α, and MCP-1. The presence of a C2-C3 double bond was the predominant determining factor for anti-inflammatory activity. […] There was no cytotoxicity associated with flavone treatment (FIG. 1E).

[3] = test system: microglial phagocytosis; experiment: Microglial phagocytosis assay (pHrodo E. coli beads); format: cell-based, human; settings: 20 μM, P=0.0015
Experimental: Phagocytosis assay. […] (2-3 biological replicates). Then, 0.5 μL of pHrodo E. Coli-FITC beads (Thermo Fisher, P35366) was added per well with gentle mixing and the cells were incubated for another 4 hours. pHrodo beads only fluoresce when they are internalized in cells. Cells were then collected by scraping, washed with FACS buffer (1×DPBS, 2% BSA, and 0.05 mM EDTA pH 8.0), and counter-stained with Zombie Violet to assess viability. Live cells were analyzed on the FACS Canto instrument for geometric mean fluorescence on the FITC channel. The background FITC fluorescence value (pHrodo beads only) was subtracted from each mean, and fold-change was computed across experimental groups.

[4] = test system: phosphorylated NF-κB; experiment: pNF-κB immunoblot in AD patient-derived astrocytes; format: cell-based, human; settings: 5 h treatment
[5] = molecular target: CK2α1 (Homo sapiens, UniProt P68400); experiment: Thermal shift assay followed by Western blotting; format: binding; design: endogenous in cells; settings: astrocyte lysates
Experimental: Thermal shift assay and TPP. Experiments were performed as previously described (Franken et al., Nature Protocols 2015, 10:1567-1593; Reinhard et al., Nature Methods 2015, 12:1129-1131). 45 million H1-derived astrocytes were activated with 10 ng/mL IL1b for 6 h, dissociated with 1:1 Accutase/papain (3 min rt), and centrifuged at 1,800 rpm for 2 min at 4 C. The pellet was washed twice with 10 mL cold DPBS, lysed in 2.25 mL DPBS and 0.4% v/v NP-40 by freeze-thawing 3×, and clarified by centrifugation (20,000 g, 30 min, 4° C.). Protein concentration was determined by BCA assay (Bio-Rad), and lysates were diluted to 2 mg/mL. […] Reactions were incubated at rt for 30 min, after which each treated extract was divided into 10 aliquots of 95 μL in PCR strip tubes and stored on ice. Each group of treated samples was heated for 3 min at predesignated temperatures (3×10 temperatures), then kept for 3 min at rt before ultracentrifugation (20 min at 4° C., 100,000 g) in 200 μL polycarbonate tubes (Beckman Coulter #343775). Designated temperatures were 37, 41.1, 43.6, 46.9, 50, 53.7, 56, 59.5, 63, and 67° C. A small aliquot (5 μL) of supernatant was saved for Western blotting, and the rest was snap frozen at −80 C and submitted for LC-MS/MS.

Sequence of CK2α1 (P68400 whole entry): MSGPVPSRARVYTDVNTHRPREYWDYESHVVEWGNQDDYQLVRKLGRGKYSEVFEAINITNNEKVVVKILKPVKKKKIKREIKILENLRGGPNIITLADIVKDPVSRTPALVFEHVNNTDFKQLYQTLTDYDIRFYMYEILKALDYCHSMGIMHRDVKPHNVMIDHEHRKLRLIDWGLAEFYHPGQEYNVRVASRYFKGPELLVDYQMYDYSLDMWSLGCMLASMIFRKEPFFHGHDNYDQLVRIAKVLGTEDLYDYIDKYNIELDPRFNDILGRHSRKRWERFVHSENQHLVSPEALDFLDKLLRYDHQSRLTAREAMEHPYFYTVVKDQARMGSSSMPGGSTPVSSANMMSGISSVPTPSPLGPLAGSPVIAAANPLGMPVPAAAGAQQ

COc1cc(-c2cc(=O)c3c(O)cc(O)cc3o2)ccc1O [CHR, Chrysoeriol]
Anti-inflammatory effects, dose dependence [1]: dose-dependent
IL1-β-induced IL-6, IL-8, TNF-α, MCP-1 cytokine upregulation [2]: active; also recorded: strong suppressive activity
Microglial phagocytosis of pHrodo E. coli beads [3]: blocked
Elevated phosphorylated NF-κB in AD astrocytes [4]: reduced
Thermal stabilization of CK2α1 [5]: dose-dependently stabilized
